In ChEMBL document CHEMBL5126607, “Discovery and In Vivo Evaluation of ACT-660602: A Potent and Selective Antagonist of the Chemokine Receptor CXCR3 for Autoimmune Diseases” (J Med Chem, 2022):

Key:
in vitro = conditions: human
[1] = biological target: T1, C-X-C chemokine receptor type 3 (Homo sapiens, UniProt P49682)
T1 sequence (P49682 whole entry): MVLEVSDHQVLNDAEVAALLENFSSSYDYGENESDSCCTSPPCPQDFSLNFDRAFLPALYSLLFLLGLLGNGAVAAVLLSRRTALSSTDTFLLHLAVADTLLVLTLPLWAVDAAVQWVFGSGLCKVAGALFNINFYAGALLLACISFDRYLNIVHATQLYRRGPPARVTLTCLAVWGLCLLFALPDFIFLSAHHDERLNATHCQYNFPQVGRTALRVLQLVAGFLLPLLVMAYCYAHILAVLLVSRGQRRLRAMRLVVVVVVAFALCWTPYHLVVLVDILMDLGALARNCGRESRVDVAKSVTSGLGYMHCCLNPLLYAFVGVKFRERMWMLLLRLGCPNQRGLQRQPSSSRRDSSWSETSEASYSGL
Description: Inhibition of CXCR3 receptor internalization in human venous whole blood incubated for 30 mins by flow cytometer analysis

[2] = biological target: Voltage-gated inwardly rectifying potassium channel KCNH2 (Homo sapiens, UniProt Q12809); assay: Inhibition of hERG expressed in CHO cells by Q patch-clamp method
Voltage-gated inwardly rectifying potassium channel KCNH2, sequence (Q12809 whole entry): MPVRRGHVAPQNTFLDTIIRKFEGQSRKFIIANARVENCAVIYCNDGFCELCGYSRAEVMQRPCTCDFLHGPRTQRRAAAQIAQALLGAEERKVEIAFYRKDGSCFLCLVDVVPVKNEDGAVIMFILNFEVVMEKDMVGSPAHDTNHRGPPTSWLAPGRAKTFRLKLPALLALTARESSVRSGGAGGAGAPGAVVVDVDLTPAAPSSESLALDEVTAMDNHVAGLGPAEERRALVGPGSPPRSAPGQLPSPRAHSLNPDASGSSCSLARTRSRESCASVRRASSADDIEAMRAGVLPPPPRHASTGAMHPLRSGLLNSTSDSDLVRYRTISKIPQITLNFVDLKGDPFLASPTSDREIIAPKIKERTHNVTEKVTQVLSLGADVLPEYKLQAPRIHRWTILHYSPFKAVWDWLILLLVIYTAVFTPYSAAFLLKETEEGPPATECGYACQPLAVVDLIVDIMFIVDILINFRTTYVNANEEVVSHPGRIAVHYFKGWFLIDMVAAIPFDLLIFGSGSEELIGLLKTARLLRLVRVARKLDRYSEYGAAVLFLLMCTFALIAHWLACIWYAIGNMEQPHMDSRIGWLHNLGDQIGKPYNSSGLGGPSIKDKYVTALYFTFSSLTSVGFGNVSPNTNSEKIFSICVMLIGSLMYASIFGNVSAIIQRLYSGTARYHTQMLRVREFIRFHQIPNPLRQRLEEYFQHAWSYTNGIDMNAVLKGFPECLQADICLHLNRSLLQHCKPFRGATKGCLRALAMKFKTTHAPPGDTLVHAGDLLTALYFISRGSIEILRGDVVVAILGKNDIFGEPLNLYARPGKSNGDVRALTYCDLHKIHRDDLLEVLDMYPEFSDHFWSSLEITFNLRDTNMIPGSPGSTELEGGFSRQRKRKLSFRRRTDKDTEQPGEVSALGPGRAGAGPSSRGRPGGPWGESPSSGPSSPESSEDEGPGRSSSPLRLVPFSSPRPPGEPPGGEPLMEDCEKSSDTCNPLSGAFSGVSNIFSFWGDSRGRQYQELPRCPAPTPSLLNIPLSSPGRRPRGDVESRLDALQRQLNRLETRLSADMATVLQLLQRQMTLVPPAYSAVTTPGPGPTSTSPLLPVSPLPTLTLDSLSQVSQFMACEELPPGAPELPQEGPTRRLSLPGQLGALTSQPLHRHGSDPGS

[3] = biological target: T1, C-X-C chemokine receptor type 3; remark: listed apart in the source
Description: Antagonist activity at recombinant human CXCR3 expressed in human CHO-K1 cells co-expressing Galpha15 incubated for 10 mins by Fluo-4AM dye based FLIPR assay

[4] = biological target: T1, C-X-C chemokine receptor type 3; remark: listed apart in the source
Description: Antagonist activity at recombinant human CXCR3 in human U2SO cells assessed as reduction in CXCL10-induced beta-arrestin recruitment by TANGO assay

[5] = Lipophilicity, log D of the compound at pH 7.4; conditions: buffer
hERG = hERG (Homo sapiens, UniProt Q12809); assay: Inhibition of hERG expressed in CHO cells 10 uM at by Q patch-clamp method relative to control
hERG, sequence (Q12809 whole entry): as above

[6] = human, microsomes, 1 µM

Row | IC50 [1] [nM] | IC50 [3] [nM] | IC50 [4] [nM] | Compound | IC50 [2] [µM] | other results
1 | 289 | 2 | 162 | CCOc1ncc(-c2nc(C(F)(F)F)sc2N2CCN(C(=O)Cn3nccc3C)[C@H](C)C2)cn1 | 5.6 | microsomal CLint at 1 µM (in vitro; microsomes): 65 µL/min/mg
2 | 536 | 3.3 | 99 | CCOc1ncc(-c2nc(C(F)(F)F)sc2N2CCN(C(=O)Cn3c(=O)oc4ccccc43)[C@H](C)C2)cn1 | 2.2 | 
3 |  | 1.6 |  | O=C(Nc1ccccc1N1CCN(C(=O)Cn2cnc3cccnc32)CC1)c1cccc(Cl)c1 |  | 
4 | 60 | 2.3 | 87 | CCOc1ncc(-c2nc(C(F)(F)F)sc2N2CCN(C(=O)Cn3nc(C)cc3C)[C@H](C)C2)cn1 | 13 | microsomal CLint at 1 µM (in vitro; microsomes): 184 µL/min/mg; logD [5]: 3.7
5 | 526 | 2.8 | 126 | C[C@@H]1CN(c2sc(Br)nc2-c2nc3ccccc3[nH]2)CCN1C(=O)Cn1cnc2cccnc21 | 0.34 | 
6 | 1150 | 50 | 2360 | C[C@@H]1CN(c2sc(CN(C)C)nc2-c2nc3ccccc3[nH]2)CCN1C(=O)Cn1cnc2cccnc21 | 20 | microsomal CLint at 1 µM (in vitro; microsomes): 44 µL/min/mg; inhibition at 10 µM (hERG): 28%
7 |  |  |  | COc1ncc(-c2nc(C(F)(F)F)sc2N2CCN(C(=O)Cn3nc(C)nc3C)[C@H](C)C2)cn1 | > 20 | 
8 | 1150 | 53 | 6220 | C[C@@H]1CN(c2sc(C3COC3)nc2-c2nc3ccccc3[nH]2)CCN1C(=O)Cn1cnc2cccnc21 | 4.4 | microsomal CLint at 1 µM (in vitro; microsomes): 38 µL/min/mg
9 |  |  |  | CCOc1ncc(-c2nc(C(F)(F)F)sc2N2CCN(C(=O)Cn3cnc4ccccc43)[C@H](C)C2)cn1 | 4.7 | 
10 | 367 | 4.4 | 258 | CCCc1ncc(-c2nc(C(F)(F)F)sc2N2CCN(C(=O)Cn3nc(C)nc3C)[C@H](C)C2)cn1 | > 20 | microsomal CLint at 1 µM (in vitro; microsomes): 80 µL/min/mg
11 | 352 | 3.5 | 523 | Cc1nc(C)n(CC(=O)N2CCN(c3sc(C(F)(F)F)nc3-c3cnc(N4CCCC4)nc3)C[C@H]2C)n1 | > 20 | 
12 |  |  |  | CCOc1ncc(-c2nc(C(F)(F)F)sc2N2CCN(C(=O)Cn3ccc4cnccc43)[C@H](C)C2)cn1 | 0.57 | 
13 |  |  |  | CCOc1ncc(-c2nc(C(F)(F)F)sc2N2CCN(C(=O)Cn3ncc4cccnc43)[C@H](C)C2)cn1 | 15 | 
14 |  | 3.9 | 604 | CC[C@@H]1CN(c2scnc2-c2nc3ccccc3[nH]2)CCN1C(=O)Cn1cnc2cccnc21 | 0.75 | 
15 |  |  |  | CCOc1ncc(-c2nc(C(F)(F)F)sc2N2CCN(C(=O)Cn3ccc4cccnc43)[C@H](C)C2)cn1 | 4.2 | 
16 |  |  |  | COCCOc1ncc(-c2nc(C(F)(F)F)sc2N2CCN(C(=O)Cn3cnc4cccnc43)[C@H](C)C2)cn1 | > 20 | inhibition at 10 µM (hERG): 17%
17 |  |  |  | CCOc1ncc(-c2nc(C(F)(F)F)sc2N2CCN(C(=O)CN3C(=O)Cc4ccccc43)[C@H](C)C2)cn1 | 3 | 
18 |  |  |  | Cc1ncc(-c2nc(C(F)(F)F)sc2N2CCN(C(=O)Cn3cnc4cccnc43)[C@H](C)C2)cn1 | 15 | inhibition at 10 µM (hERG): 40%
19 | 158 | 3.8 | 177 | COc1ncc(-c2nc(C(F)(F)F)sc2N2CCN(C(=O)Cn3cnc4cccnc43)[C@H](C)C2)cn1 | > 20 | CLH [6]: 14 µL/min/kg; inhibition at 10 µM (hERG): 19%
20 |  | 4.2 |  | O=C(Nc1cccnc1N1CCN(C(=O)Cn2cnc3cccnc32)CC1)c1cccc(Cl)c1 |  | 
21 | 90 | 3.8 | 93 | CCOc1ncc(-c2nc(C(F)(F)F)sc2N2CCN(C(=O)Cn3ccc(C(F)(F)F)n3)[C@H](C)C2)cn1 | 5.1 | microsomal CLint at 1 µM (in vitro; microsomes): 20 µL/min/mg

Row | IC50 [1] [nM] | IC50 [3] [nM] | IC50 [4] [nM] | Compound | IC50 [2] [µM] | other results
22 | 674 | 3.5 | 349 | Cc1nc(C)n(CC(=O)N2CCN(c3sc(C(F)(F)F)nc3-c3cnc(C4CC4)nc3)C[C@H]2C)n1 | 13 | microsomal CLint at 1 µM (in vitro; microsomes): < 10 µL/min/mg
23 | 860 | 4.2 | 608 | Cc1nc(C)n(CC(=O)N2CCN(c3sc(C(F)(F)F)nc3-c3ccc(C(F)(F)F)nc3)C[C@H]2C)n1 | 5.2 | microsomal CLint at 1 µM (in vitro; microsomes): < 10 µL/min/mg
24 | 1440 | 30 |  | O=C(Cn1cnc2cccnc21)N1CCN(c2scnc2-c2nc3ccccc3[nH]2)CC1 |  | 
25 |  |  |  | COc1ccc(-c2nc(C(F)(F)F)sc2N2CCN(C(=O)Cn3cnc4cccnc43)[C@H](C)C2)cc1 | 8.8 | inhibition at 10 µM (hERG): 53%
26 | 3380 | 171 | > 10000 | C[C@@H]1CN(c2sc(CO)nc2-c2nc3ccccc3[nH]2)CCN1C(=O)Cn1cnc2cccnc21 | 19 | 
27 |  |  |  | Cc1nc(C)n(CC(=O)N2CCN(c3sc(C(F)(F)F)nc3-c3cnc(C(C)(C)C)nc3)C[C@H]2C)n1 | > 20 | 
28 | 994 | 9.7 | 745 | C[C@@H]1CN(c2sc(C3CC3)nc2-c2nc3ccccc3[nH]2)CCN1C(=O)Cn1cnc2cccnc21 | 0.38 | 
29 |  | 67 | 8030 | C[C@H]1CN(c2scnc2-c2nc3ccccc3[nH]2)CCN1C(=O)Cn1cnc2cccnc21 | 0.63 | 
30 | 381 | 6.7 | 140 | C[C@@H]1CN(c2sc(C(F)(F)F)nc2-c2cnc(OCCN(C)C)nc2)CCN1C(=O)Cn1cnc2cccnc21 | > 20 | CLH [6]: 29 µL/min/kg; inhibition at 10 µM (hERG): 25%
31 | 887 | 8.8 | 505 | CCOc1ccc(-c2nc(C(F)(F)F)sc2N2CCN(C(=O)Cn3nc(C)nc3C)[C@H](C)C2)cn1 | > 20 | microsomal CLint at 1 µM (in vitro; microsomes): 66 µL/min/mg
32 |  |  |  | Cc1ncc(-c2nc(C(F)(F)F)sc2N2CCN(C(=O)Cn3nc(C)nc3C)[C@H](C)C2)cn1 | > 20 | 
33 |  |  |  | CCCc1ncc(-c2nc(C(F)(F)F)sc2N2CCN(C(=O)Cn3cnc4cccnc43)[C@H](C)C2)cn1 | 5.9 | inhibition at 10 µM (hERG): 57%
34 |  |  |  | CCOc1ncc(-c2nc(C(F)(F)F)sc2N2CCN(C(=O)Cn3cc(Cl)cn3)[C@H](C)C2)cn1 | 2.8 | 
35 |  |  |  | CCc1ncc(-c2nc(C(F)(F)F)sc2N2CCN(C(=O)Cn3nc(C)nc3C)[C@H](C)C2)cn1 | > 20 | 
36 |  | 4200 |  | O=C(Cn1cnc2cccnc21)N1CCN(c2ncsc2-c2nc3ccccc3[nH]2)CC1 |  | 
37 | 1060 | 9 | 1050 | Cc1nc(-c2nc3ccccc3[nH]2)c(N2CCN(C(=O)Cn3cnc4cccnc43)[C@H](C)C2)s1 | 2.6 | microsomal CLint at 1 µM (in vitro; microsomes): 23 µL/min/mg
38 |  |  |  | CCc1nc(-c2nc3ccccc3[nH]2)c(N2CCN(C(=O)Cn3cnc4cccnc43)[C@H](C)C2)s1 |  | microsomal CLint at 1 µM (in vitro; liver microsomes): 88 µL/min/mg
39 |  |  |  | COc1ccc(-c2nc(C(F)(F)F)sc2N2CCN(C(=O)Cn3nc(C)nc3C)[C@H](C)C2)cn1 | > 20 | 
40 | 306 | 4 | 78 | Cc1nc(C)n(CC(=O)N2CCN(c3sc(C(F)(F)F)nc3-c3cnc(OC4CCC4)nc3)C[C@H]2C)n1 | > 20 | microsomal CLint at 1 µM (in vitro; microsomes): 51 µL/min/mg; logD [5]: 3.6
41 | 230 | 4.3 |  | O=C(Cn1cnc2cccnc21)N1CCN(c2ccccc2-c2nc3ccccc3[nH]2)CC1 |  | 
